Assay results: PubChem BioAssay AID248 (DTP/NCI, 2004)
Where “and” joins values, the source holds several entries; their conditions need not be identical. Equal values may be shown once. Toxic doses and inconclusive results are not listed. Rule as the data show it: active = T/C of 150% or more; inactive = T/C below 125%.

System: L1210 leukemia ip in BDF1 mice, survival T/C
Assay: NCI In Vivo Anticancer Drug Screen. Data for tumor model L1210 Leukemia (intraperitoneal) in B6D2F1 (BDF1) mice
Conditions: endpoint: mean survival time, higher = longer survival
Procedure, shortened: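 Read-out is survival time, reported as the treated-group measurement over the vehicle-control measurement.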

[1] = dose: 100.0 mg/kg/injection, schedule: Q01DX001 (ip), vehicle: carboxymethylcellulose (CMC)
[2] = dose: 200.0 mg/kg/injection, schedule: Q01DX001 (ip), vehicle: carboxymethylcellulose (CMC)
[3] = dose: 400.0 mg/kg/injection, schedule: Q01DX001 (ip), vehicle: carboxymethylcellulose (CMC)
[4] = dose: 100.0 mg/kg/injection, schedule: Q04DX003 (ip), vehicle: saline with Tween-80
[5] = dose: 100.0 mg/kg/injection, schedule: Q01DX001 (ip), vehicle: saline
[6] = dose: 100.0 mg/kg/injection, schedule: Q01DX009 (ip), vehicle: saline
[7] = dose: 200.0 mg/kg/injection, schedule: Q01DX001 (ip), vehicle: saline
[8] = dose: 200.0 mg/kg/injection, schedule: Q01DX009 (ip), vehicle: saline
[9] = dose: 400.0 mg/kg/injection, schedule: Q01DX001 (ip), vehicle: saline
[10] = dose: 100.0 mg/kg/injection, schedule: Q04DX003 (ip), vehicle: saline
[11] = dose: 200.0 mg/kg/injection, schedule: Q04DX003 (ip), vehicle: saline
[12] = dose: 400.0 mg/kg/injection, schedule: Q04DX003 (ip), vehicle: saline

Measured: T/C

CCC[CH2][Sn]([CH2]CCC)([CH2]CCC)[O]C(=O)CC[S][Sn]([CH2]CCC)([CH2]CCC)[CH2]CCC
inactive: dose: 0.5 mg/kg/injection, schedule: Q01DX015 (ip), vehicle: saline 97 % of control | dose: 1.0 mg/kg/injection, schedule: Q01DX015 (ip), vehicle: saline 100 % of control | dose: 2.0 mg/kg/injection, schedule: Q01DX015 (ip), vehicle: saline 95 % of control | dose: 2.5 mg/kg/injection, schedule: Q01DX001 (ip), vehicle: saline 103 % of control | dose: 4.0 mg/kg/injection, schedule: Q01DX015 (ip), vehicle: saline 87 % of control | dose: 5.0 mg/kg/injection, schedule: Q01DX001 (ip), vehicle: saline 100 % of control | dose: 10.0 mg/kg/injection, schedule: Q01DX001 (ip), vehicle: saline 105 % of control | dose: 20.0 mg/kg/injection, schedule: Q01DX001 (ip), vehicle: saline 97 % of control

Cn1c(N)c(N=CC2CC=CCC2)c(=O)n(C)c1=O (configuration not stated)
inactive: dose: 50.0 mg/kg/injection, schedule: Q01DX001 (ip), vehicle: other 103 % of control | dose: 100.0 mg/kg/injection, schedule: Q01DX001 (ip), vehicle: other 97 % of control | dose: 200.0 mg/kg/injection, schedule: Q01DX001 (ip), vehicle: other 92 % of control | dose: 400.0 mg/kg/injection, schedule: Q01DX001 (ip), vehicle: other 97 % of control

Cn1c2c(c(=O)[nH]c1=O)OCN(Cc1ccccc1)C2
inactive: dose: 50.0 mg/kg/injection, schedule: Q01DX001 (ip), vehicle: carboxymethylcellulose (CMC) 91 % of control | [1] 100 % of control | [2] 94 % of control | [3] 100 % of control

O=C1c2ccccc2CCCC1N1CCOCC1 (configuration not stated)
inactive: [4] 95 % of control | dose: 200.0 mg/kg/injection, schedule: Q04DX003 (ip), vehicle: saline with Tween-80 94 % of control | dose: 400.0 mg/kg/injection, schedule: Q04DX003 (ip), vehicle: saline with Tween-80 87 % of control

Cc1ccc(N2CCCC(=O)C(O)CCC2)cc1 (configuration not stated)
inactive: [5] 98 % of control | [6] 100 % of control | [7] 90 % of control | [8] 96 % of control | dose: 300.0 mg/kg/injection, schedule: Q01DX009 (ip), vehicle: saline 116 % of control | [9] 90 % of control

O=P(OCc1ccccc1)(N(CCCl)CCCl)N1CCN(P(=O)(OCc2ccccc2)N(CCCl)CCCl)CC1 (configuration not stated)
inactive: dose: 16.0 mg/kg/injection, schedule: Q01DX Z (ip), vehicle: saline 94 % of control | dose: 32.0 mg/kg/injection, schedule: Q01DX Z (ip), vehicle: saline 89 % of control | dose: 64.0 mg/kg/injection, schedule: Q01DX Z (ip), vehicle: saline 95 % of control | dose: 128.0 mg/kg/injection, schedule: Q01DX Z (ip), vehicle: saline 111 % of control

CC12CCC(C3=C1OC(=O)C(c1ccccc1)(c1ccccc1)C3=O)C2(C)C (configuration not stated)
inactive: [5] 105 % of control | [6] 94 % of control | [10] 103 % of control | [7] 113 % of control | [8] 102 % of control | [11] 97 % of control | [9] 97 % of control | dose: 400.0 mg/kg/injection, schedule: Q01DX009 (ip), vehicle: saline 100 % of control | [12] 103 % of control

CCSCN(C)C
inactive: dose: 50.0 mg/kg/injection, schedule: Q01DX009 (ip), vehicle: saline 102 % of control | dose: 50.0 mg/kg/injection, schedule: Q04DX003 (ip), vehicle: saline 97 % of control | [5] 113 % of control | [6] 101 % of control | [10] 103 % of control | [7] 97 % of control | [11] 105 % of control

O=C(NCCCl)NC1CCCc2ccccc21 (configuration not stated)
inactive: dose: 6.25 mg/kg/injection, schedule: Q01DX009 (ip), vehicle: Klucel (hydroxypropylcellulose) (HPC) 95 % of control | dose: 12.5 mg/kg/injection, schedule: Q01DX009 (ip), vehicle: Klucel (hydroxypropylcellulose) (HPC) 94 % of control | dose: 25.0 mg/kg/injection, schedule: Q01DX009 (ip), vehicle: Klucel (hydroxypropylcellulose) (HPC) 90 % of control | dose: 50.0 mg/kg/injection, schedule: Q01DX009 (ip), vehicle: Klucel (hydroxypropylcellulose) (HPC) 92 % of control | dose: 100.0 mg/kg/injection, schedule: Q01DX001 (ip), vehicle: Klucel (hydroxypropylcellulose) (HPC) 105 % of control | dose: 200.0 mg/kg/injection, schedule: Q01DX001 (ip), vehicle: Klucel (hydroxypropylcellulose) (HPC) 91 % of control

S=C(NNC(=S)Nc1ccc(Cl)cc1)NNc1ccccc1
inactive: dose: 100.0 mg/kg/injection, schedule: Q04DX003 (ip), vehicle: acetone 97 % of control | dose: 200.0 mg/kg/injection, schedule: Q04DX003 (ip), vehicle: acetone 100 % of control

Cc1ccc(NC(=O)Oc2ccc(Br)cc2)c([N+](=O)[O-])c1
inactive: dose: 100.0 mg/kg/injection, schedule: Q04DX002 (ip), vehicle: Klucel (hydroxypropylcellulose) (HPC) 99 % of control | dose: 200.0 mg/kg/injection, schedule: Q04DX002 (ip), vehicle: Klucel (hydroxypropylcellulose) (HPC) 115 % of control | dose: 400.0 mg/kg/injection, schedule: Q04DX002 (ip), vehicle: Klucel (hydroxypropylcellulose) (HPC) 92 % of control

NC(=O)c1ccc([N+](=O)[O-])s1
inactive: dose: 25.0 mg/kg/injection, schedule: Q04DX003 (ip), vehicle: saline with Tween-80 98 % of control | dose: 50.0 mg/kg/injection, schedule: Q04DX003 (ip), vehicle: saline with Tween-80 104 % of control | dose: 100.0 mg/kg/injection, schedule: Q04DX003 (ip), vehicle: Klucel (hydroxypropylcellulose) (HPC) 100 % of control | [4] 96 % of control

O=C(Nc1ccc([N+](=O)[O-])cc1Cl)Oc1ccc(Cl)cc1Cl
inactive: [1] 97 % of control | dose: 100.0 mg/kg/injection, schedule: Q01DX009 (ip), vehicle: carboxymethylcellulose (CMC) 109 % of control and 91 % of control | dose: 100.0 mg/kg/injection, schedule: Q04DX002 (ip), vehicle: carboxymethylcellulose (CMC) 94 % of control and 90 % of control | dose: 100.0 mg/kg/injection, schedule: Q04DX003 (ip), vehicle: carboxymethylcellulose (CMC) 102 % of control | [2] 97 % of control | dose: 200.0 mg/kg/injection, schedule: Q01DX009 (ip), vehicle: carboxymethylcellulose (CMC) 102 % of control and 91 % of control | dose: 200.0 mg/kg/injection, schedule: Q04DX002 (ip), vehicle: carboxymethylcellulose (CMC) 93 % of control and 110 % of control | dose: 200.0 mg/kg/injection, schedule: Q04DX003 (ip), vehicle: carboxymethylcellulose (CMC) 94 % of control | [3] 98 % of control | dose: 400.0 mg/kg/injection, schedule: Q01DX009 (ip), vehicle: carboxymethylcellulose (CMC) 98 % of control | dose: 400.0 mg/kg/injection, schedule: Q04DX002 (ip), vehicle: carboxymethylcellulose (CMC) 93 % of control and 105 % of control | dose: 400.0 mg/kg/injection, schedule: Q04DX003 (ip), vehicle: carboxymethylcellulose (CMC) 98 % of control

NC(=O)C1(NC2CCCCC2)CCN(Cc2ccccc2)CC1
inactive: dose: 50.0 mg/kg/injection, schedule: Q01DX009 (ip), vehicle: gum acacia 100 % of control | dose: 100.0 mg/kg/injection, schedule: Q01DX009 (ip), vehicle: gum acacia 100 % of control | dose: 100.0 mg/kg/injection, schedule: Q04DX003 (ip), vehicle: gum acacia 96 % of control | dose: 200.0 mg/kg/injection, schedule: Q01DX009 (ip), vehicle: gum acacia 93 % of control | dose: 200.0 mg/kg/injection, schedule: Q04DX003 (ip), vehicle: gum acacia 96 % of control

Brc1ccc2c(c1)nc1n2CCC1
inactive: dose: 100.0 mg/kg/injection, schedule: Q01DX001 (ip), vehicle: acetone 105 % of control | [10] 104 % of control | dose: 200.0 mg/kg/injection, schedule: Q01DX001 (ip), vehicle: acetone 108 % of control | [11] 111 % of control | dose: 400.0 mg/kg/injection, schedule: Q01DX001 (ip), vehicle: acetone 94 % of control | [12] 101 % of control

COc1ccc(/C=N/NC(=O)C[n+]2ccccc2)c(OC)c1
inactive: dose: 25.0 mg/kg/injection, schedule: Q01DX009 (ip), vehicle: saline with Tween-80 110 % of control | dose: 50.0 mg/kg/injection, schedule: Q01DX009 (ip), vehicle: saline with Tween-80 101 % of control | dose: 100.0 mg/kg/injection, schedule: Q01DX009 (ip), vehicle: saline with Tween-80 103 % of control | [4] 94 % of control
